“Also recorded” adds a separate entry of the source.
Tested on: ONC-T18
Experiment: Fatty acid production antagonist supplementation of ONC-T18 culture, fatty acid profile by FAME GC-FID
Assay type: cell-based, Thraustochytrium sp. ONC-T18
Method: Media containing 25 g/l sea salt and 1 g/l yeast extract was autoclaved at 120° C. for 20 minutes. Sterilized glucose was added to the media at a concentration of 9 g/l. Sethoxydim (Supleco) was dissolved in dimethyl sulfoxide at a concentration of 5 mg/ml was then added to the media at to represent a final concentration of 100 µM. 1 ml of a 24 hour pre-culture of ONC-T 18 that had been cultured in the same media was added. Culturing was carried out in a shaker (130 rpm) for four days at room temperature. After the incubation period, cells were harvested by centrifugation at 4300 rpm for 10 minutes. The cell pellets were then freeze-dried, weighed and the oil was extracted from the cells.
(§1) The lipids were extracted and derivatized to fatty acid methyl esters (FAME) for gas chromatography analysis (GC). Transesterification and extraction was done using 200 mg freeze dried cells, with C19:0 as internal standard, added transesterification reaction mix (methanol:hydrochloric acid:chloroform, 10:1:1) mixed and heated at 90° C. for 2 hours, then allowed to cool at room temperature. FAMEs were extracted by adding 1 ml water, and 2 ml hexane:chloroform (4:1), and allow organic and aqueous phases to separate. The organic layer was extracted and treated with 0.5 g of anhydrous sodium sulfate to remove particulates and residual water. The organic solvents were evaporated under a stream of argon. The FAMEs were re-suspended in 5 ml of iso-octane and analyzed by GC-FID. The percent conversion was calculated by dividing the product produced by the sum of (the product produced plus the substrate added) and then multiplying by 100.
Media containing 6 g/l sea salt, 2 g/l yeast extract, and 8 g/l L-glutamic acid monosodium salt hydrate was autoclaved at 120° C. for 20 minutes. Sterilized D+-glucose was then added to this media at a concentration of 40 g/l. Cerulenin dissolved in ethanol at a concentration of 5 mg/ml was added to 250 ml flask and the solvent was evaporated for 1 hour prior to adding the media to the flask. The amount of cerulenin in the flask represented a final concentration of 20 mg/l. ONC-T18 was then added to the medium from a plate culture and culturing occurred in a shaker (130 rpm) at room temperature for four days. After the incubation period, cells were harvested by centrifugation at 4300 rpm for 10 minutes, washed once with distilled water, and then centrifuged again at 4300 rpm for 10 minutes. The cell pellets were then freeze-dried, weighed and the oil was extracted from the cells.
as §1, with “produced+the” for “produced plus the”
Media containing 6 g/l sea salt, 2 g/l yeast extract, and 8 g/l L-glutamic acid monosodium salt hydrate was autoclaved at 120° C. for 20 minutes. Sterilized D+-glucose wad then added at a concentration of 5 g/l or was not added to the media. Oleic acid was added to the media to represent a final concentration of 2 ml/l. […]

[1] = oleic acid in combination with glucoase
[2] = presence of the antagonist, oleic acid without glucose

CCCCCCCC/C=C\CCCCCCCC(=O)O [oleic acid]
DHA accumulated in ONC-T18, change versus control (in words) (antagonist added to medium): most of the oleic acid was converted into DHA; also recorded: more DHA content was observed; also recorded: increase in the content and proportion of DHA
EPA in ONC-T18 fatty acid profile, change versus control (in words) (antagonist added to medium): elevation of the EPA content; also recorded: elevated level of EPA
adrenic acid, lipid as percentage of total fatty acid [1]: 0.28%
arachidic acid, lipid as percentage of total fatty acid [1]: 0.34%
arachidonic acid, lipid as percentage of total fatty acid [1]: 0.46%
behenic acid, lipid as percentage of total fatty acid [1]: 0.00%
docosadienoic acid, lipid as percentage of total fatty acid [1]: 0.43%
docosahexaenoic acid, lipid as percentage of total fatty acid [1]: 24.65%
docosapentaenoic acid n-3, lipid as percentage of total fatty acid [1]: 0.39%
docosapentaenoic acid n-6, lipid as percentage of total fatty acid [1]: 6.46%
eicosadienoic acid, lipid as percentage of total fatty acid [1]: 0.36%
eicosapentaenoic acid, lipid as percentage of total fatty acid [1]: 2.60%
eicosatetraenoic acid, lipid as percentage of total fatty acid [1]: 0.24%
eicosatrienoic acid, lipid as percentage of total fatty acid [1]: 0.00%
eicosenoic acid, lipid as percentage of total fatty acid [1]: 0.30%
heneicosapentaenoic acid, lipid as percentage of total fatty acid [1]: 0.79%
hexacosanoic acid, lipid as percentage of total fatty acid [1]: 0.00%
homo-gamma-linolenic acid, lipid as percentage of total fatty acid [1]: 0.30%
lignoceric acid, lipid as percentage of total fatty acid [1]: 0.00%
margaric acid, lipid as percentage of total fatty acid [1]: 0.17%
myristic acid, lipid as percentage of total fatty acid [1]: 8.04%
myristoleic acid, lipid as percentage of total fatty acid [1]: 0.00%
nervonic acid, lipid as percentage of total fatty acid [1]: 0.00%
oleic acid, lipid as percentage of total fatty acid [1]: 9.49%
palmitic acid, lipid as percentage of total fatty acid [1]: 33.18%
palmitoleic acid, lipid as percentage of total fatty acid [1]: 4.22%
pentadecanoic acid, lipid as percentage of total fatty acid [1]: 0.73%
pentadecenoic acid, lipid as percentage of total fatty acid [1]: 0.00%
stearic acid, lipid as percentage of total fatty acid [1]: 1.60%
vaccenic acid, lipid as percentage of total fatty acid [1]: 4.45%
adrenic acid, lipid as percentage of total fatty acid [2]: 0.60%
arachidic acid, lipid as percentage of total fatty acid [2]: 0.00%
arachidonic acid, lipid as percentage of total fatty acid [2]: 0.72%
behenic acid, lipid as percentage of total fatty acid [2]: 0.00%
docosadienoic acid, lipid as percentage of total fatty acid [2]: 0.68%
docosahexaenoic acid, lipid as percentage of total fatty acid [2]: 33.16%
docosapentaenoic acid n-3, lipid as percentage of total fatty acid [2]: 0.39%
docosapentaenoic acid n-6, lipid as percentage of total fatty acid [2]: 7.58%
eicosadienoic acid, lipid as percentage of total fatty acid [2]: 0.51%
eicosapentaenoic acid, lipid as percentage of total fatty acid [2]: 5.47%
eicosatetraenoic acid, lipid as percentage of total fatty acid [2]: 0.00%
eicosatrienoic acid, lipid as percentage of total fatty acid [2]: 0.00%
eicosenoic acid, lipid as percentage of total fatty acid [2]: 0.00%
heneicosapentaenoic acid, lipid as percentage of total fatty acid [2]: 0.20%
hexacosanoic acid, lipid as percentage of total fatty acid [2]: 0.00%
homo-gamma-linolenic acid, lipid as percentage of total fatty acid [2]: 0.61%
lignoceric acid, lipid as percentage of total fatty acid [2]: 0.00%
margaric acid, lipid as percentage of total fatty acid [2]: 0.28%
myristic acid, lipid as percentage of total fatty acid [2]: 1.38%
myristoleic acid, lipid as percentage of total fatty acid [2]: 0.00%
nervonic acid, lipid as percentage of total fatty acid [2]: 0.00%
oleic acid, lipid as percentage of total fatty acid [2]: 25.36%
palmitic acid, lipid as percentage of total fatty acid [2]: 16.67%
palmitoleic acid, lipid as percentage of total fatty acid [2]: 1.06%
pentadecanoic acid, lipid as percentage of total fatty acid [2]: 0.49%
pentadecenoic acid, lipid as percentage of total fatty acid [2]: 0.00%
stearic acid, lipid as percentage of total fatty acid [2]: 1.56%
vaccenic acid, lipid as percentage of total fatty acid [2]: 2.68%

CCC/C(=N\OCC)C1=C(O)CC(CC(C)SCC)CC1=O (stereo not shown) [sethoxydim]
DHA accumulated in ONC-T18, change versus control (in words) (antagonist added to medium): increase in the content and proportion of DHA
adrenic acid, lipid as percentage of total fatty acid [2]: 0.00%
arachidic acid, lipid as percentage of total fatty acid [2]: 0.2%
arachidonic acid, lipid as percentage of total fatty acid [2]: 0.20%
behenic acid, lipid as percentage of total fatty acid [2]: 0.00%
docosadienoic acid, lipid as percentage of total fatty acid [2]: 0.00%
docosahexaenoic acid, lipid as percentage of total fatty acid [2]: 19.31%
docosapentaenoic acid n-3, lipid as percentage of total fatty acid [2]: 0.24%
docosapentaenoic acid n-6, lipid as percentage of total fatty acid [2]: 5.26%
eicosadienoic acid, lipid as percentage of total fatty acid [2]: 0.14%
eicosapentaenoic acid, lipid as percentage of total fatty acid [2]: 0.78%
eicosatetraenoic acid, lipid as percentage of total fatty acid [2]: 0.37%
eicosatrienoic acid, lipid as percentage of total fatty acid [2]: 0.00%
eicosenoic acid, lipid as percentage of total fatty acid [2]: 0.00%
heneicosapentaenoic acid, lipid as percentage of total fatty acid [2]: 1.09%
hexacosanoic acid, lipid as percentage of total fatty acid [2]: 0.20%
homo-gamma-linolenic acid, lipid as percentage of total fatty acid [2]: 0.10%
lignoceric acid, lipid as percentage of total fatty acid [2]: 0.00%
margaric acid, lipid as percentage of total fatty acid [2]: 1.49%
myristic acid, lipid as percentage of total fatty acid [2]: 10.97%
myristoleic acid, lipid as percentage of total fatty acid [2]: 0.03%
nervonic acid, lipid as percentage of total fatty acid [2]: 0.00%
oleic acid, lipid as percentage of total fatty acid [2]: 0.18%
palmitic acid, lipid as percentage of total fatty acid [2]: 40.52%
palmitoleic acid, lipid as percentage of total fatty acid [2]: 9.18%
pentadecanoic acid, lipid as percentage of total fatty acid [2]: 5.5%
pentadecenoic acid, lipid as percentage of total fatty acid [2]: 0.53%
stearic acid, lipid as percentage of total fatty acid [2]: 1.45%
vaccenic acid, lipid as percentage of total fatty acid [2]: 2.48%

Cc1ccccc1C(=O)O [toluic acid]
adrenic acid, lipid as percentage of total fatty acid [2]: 0.46%
arachidic acid, lipid as percentage of total fatty acid [2]: 0.23%
arachidonic acid, lipid as percentage of total fatty acid [2]: 0.90%
behenic acid, lipid as percentage of total fatty acid [2]: 0.00%
docosadienoic acid, lipid as percentage of total fatty acid [2]: 0.06%
docosahexaenoic acid, lipid as percentage of total fatty acid [2]: 23.03%
docosapentaenoic acid n-3, lipid as percentage of total fatty acid [2]: 0.54%
docosapentaenoic acid n-6, lipid as percentage of total fatty acid [2]: 5.95%
eicosadienoic acid, lipid as percentage of total fatty acid [2]: 0.79%
eicosapentaenoic acid, lipid as percentage of total fatty acid [2]: 2.95%
eicosatetraenoic acid, lipid as percentage of total fatty acid [2]: 0.36%
eicosatrienoic acid, lipid as percentage of total fatty acid [2]: 0.03%
eicosenoic acid, lipid as percentage of total fatty acid [2]: 0.14%
heneicosapentaenoic acid, lipid as percentage of total fatty acid [2]: 0.39%
hexacosanoic acid, lipid as percentage of total fatty acid [2]: 0.00%
homo-gamma-linolenic acid, lipid as percentage of total fatty acid [2]: 0.17%
lignoceric acid, lipid as percentage of total fatty acid [2]: 0.03%
margaric acid, lipid as percentage of total fatty acid [2]: 2.69%
myristic acid, lipid as percentage of total fatty acid [2]: 11.19%
myristoleic acid, lipid as percentage of total fatty acid [2]: 0.00%
nervonic acid, lipid as percentage of total fatty acid [2]: 0.18%
oleic acid, lipid as percentage of total fatty acid [2]: 0.11%
palmitic acid, lipid as percentage of total fatty acid [2]: 26.90%
palmitoleic acid, lipid as percentage of total fatty acid [2]: 2.36%
pentadecanoic acid, lipid as percentage of total fatty acid [2]: 14.93%
pentadecenoic acid, lipid as percentage of total fatty acid [2]: 0.27%
stearic acid, lipid as percentage of total fatty acid [2]: 1.59%
vaccenic acid, lipid as percentage of total fatty acid [2]: 3.68%
